According to patent US9993497B2, “Use of alginate compositions in preventing or reducing liver damage caused by a hepatotoxic agent” (HADASIT MEDICAL RESEARCH SERVICES AND DEVELOPMENT LTD., priority 2012, dated 2018):

Experiments:
[1] = tested on: paracetamol intoxicated mice; assay: Nitrotyrosine staining of liver tissue (oxidative stress); type: in vivo, mice (C57BL/6); conditions: 4 mg paracetamol alone
Description: (§1) Briefly, necrosis staining was as follows: sections were first de-paraffinized and then were incubated with rabbit polyclonal IgG. Sections were then incubated with secondary antibody using the MACH 3 Rabbit HRP Polymer Detection and then dehydrated, cleared and mounted in synthetic resin. For color detection, DAB (3,3′-diaminobenzidine) was applied, followed by counterstaining Quantification of necrosis was carried out by the Ariol SL-50 system (Applied Imaging) on microscope slides. Nitrotyrosine and Ki-67 immunostaining staining was performed similarly, using a rabbit polyclonal anti-nitrotyrosine antibody (Abcam) or an anti-Ki-67 antibody (DAKO).

[2] = tested on: paracetamol intoxicated mice; assay: Ki-67 staining of liver tissue (cell proliferation); type: in vivo, mice (C57BL/6); conditions: 4 mg paracetamol alone
Description: as §1

Structure (SMILES): CC(=O)Nc1ccc(O)cc1 [paracetamol, N-acetyl-p-aminophenol]
- Nitrotyrosine staining in liver [1]: extensive centrilobular nitrotyrosine staining
- Cell proliferation in the liver (Ki-67 staining) [2]: widespread cell proliferation in the liver
